Common to all, as to format: in vivo, rat
One assay concerns δ subunit mRNA. The assay is described as follows: Semi-quantitative RT-PCR of δ subunit in hippocampus. The conditions noted are these: after progesterone withdrawal. As to the method: (§1) Crystalline progesterone was administered via a silicone capsule ( 1/16″ i.d., ⅛″ o.d.) implanted subcutaneously (10 mm length/100 gm body weight) in female rats (110-120 grams, in vitro studies; 220-250 grams, behavioral studies) for 21 days. Control rats were implanted with an empty capsule. […] Animals were tested 24 hours after removal of the implant.
Following isolation of total RNA from hippocampus, reverse transcription (SuperScript II, Rnase RT, GibcoBRL) yielded complementary DNA (cDNA) which was amplified with PCR methods (65) using oligonucleotide primers for the δ subunit (398 bp)(70) and GAPDH (657 bp, Operon). Twenty three to thirty amplification cycles were used for two different concentrations of cDNA (25 or 50 ng) to detect band densities within a linear range (15). Following gel electrophoresis (FMC Bioproducts), the density of DNA bands stained with ethidium bromide was quantified and normalized to the GAPDH control.

Assay [1] concerns δ and α4 GABAA receptor subunit proteins. The assay is described as follows: Western blot of δ and α4 subunits in hippocampus after progesterone withdrawal. Here is the method: as §1
Membranes prepared from hippocampal tissue were solubilized and electrophoresed on 9% SDS-polyacrylamide gels before transfer to a polyvinyldifluoride membrane, as described (65,69). Polyclonal antiserum against the δ subunit (Asr^318-Leu^400) was supplied by Dr. R. McKernan (Merck)(56) and is visualized as a 54 kDa band. Membranes were also probed with an antibody for the α4 GABAA receptor subunit (67 kDa) (64), developed according to a previously described protocol (38), and a commercial antibody for the control protein GAPDH (glyceraldehyde-3-phosphate dehydrogenase; 36 kDa). Membranes were incubated for 1-2 hours at room temperature with 1:10,000 (α4), 1:7,000 (δ) or 1:20,000 (GAPDH) dilution of antibody followed by addition of 1:5,000 horseradish-peroxidase-conjugated donkey anti-rabbit IgG (Amersham). Band densities were quantified using densitometry with One-Dscan software after normalization to the GAPDH control. Reagents were obtained from Sigma/Genosys.

The next assay has as its system GABAR α4 subunit. In words: Western blot of α4 subunit in hippocampus after steroid and ethanol administration. To be noted: steroid withdrawal after 21 days progesterone. As to the method: Animals were administered steroids using one of two protocols: (i) For the 48 hour steroid administration protocol, animals were injected with 10 mg/kg 3α, 5β THP in oil, i.p., on a daily basis for three days and sacrificed 1-2 hour following the final injection. Controls were injected with oil vehicle. […] At this time, the capsule was removed and the animals were injected with 17 β estradiol (2 μgs/animal) in order to reset their cycle. Animals were sacrificed 24 hours later. […] In all cases, implantation and removal of capsules were performed under halothane anesthesia. […] Therefore, this study employed the 5β isomer of the steroid.
In some groups of animals, either ethanol (0.5 g/kg in saline) or saline vehicle was administered i.p. (3×, every 40 minutes) for the final 2 hours of the respective steroid administration or withdrawal paradigm. The use of multiple injections of low doses of ethanol would approximate ethanol consumption in the human more closely than would a single injection. For the 48 hour steroid administration paradigm, animals received their first ethanol injection immediately after the steroid injection, and subsequent injections at 40 minute intervals. In all cases, animals were sacrificed 40 minutes after the final ethanol injection (2 hours after the first ethanol injection and final steroid injection). All animal protocols were carried out with the approval of the Institutional Animal Care and Use Committee.
Hippocampi removed from steroid or vehicle-treated animals were homogenized, and membranes prepared as previously described (65). Following electrophoresis on 8% SDS polyacrylamide gels, membranes were transferred to a nitrocellulose membrane (Bio-Rad, Hercules, Calif.). α4 subunit levels were detected by evaluating the band density at 67 kDa after probing with a polyclonal antibody (64). Membranes were incubated for 1-2 hours at room temperature with a 1:5000 dilution of horseradish peroxidase-conjugated donkey anti-rabbit IgG (Amersham, Arlington Heights, Ill.), and visualized with enhanced chemiluminescence with varying concentrations of protein in the linear range. Immunoreactive band densities were quantified using a CCD camera (UMAX Scanner) and one-Dscan software, which uses multiple Gaussian fits to achieve accurate band density profiles.

Structures are written as SMILES.

On to `CC(=O)[C@H]1CC[C@H]2[C@@H]3CCC4=CC(=O)CC[C@]4(C)[C@H]3CC[C@]12C` [progesterone], for which the “δ subunit mRNA in hippocampus” value in the assay on δ subunit mRNA is given as “three-fold”. Besides, in assay [1], the “expression of α4 subunit protein in hippocampus” value is given as “three-fold” and the “expression of δ subunit protein in hippocampus” value is “three-fold”. Also, in the assay with GABAR α4 subunit, the “increase of α4 expression” value is given as “threefold”.

The record behind these values is patent US7816074B2, “α4 β2 δGABA-A receptors as a strategy for PMS and alcoholism” (priority 2003, dated 2010).
